One data set addresses T1, DENV NS4B (Dengue virus type 3, UniProt P27915).
T1 construct: Overlaid ^19F-NMR spectra of JNJ-1802 in absence (blue) and presence of DENV NS4B (red)
In words: 19F-NMR binding, DENV NS4B. The note with it: compound 50 µM, NS4B 5 µM.

The next data set deals with YFV 17D. The experiment in a line: microbe, parasite or virus in culture. Type of data set: cell-based. The note with it: Yellow fever virus; CPE-protection.
A further data set concerns ZIKV viral E protein. The experiment in a line: Viral E protein expression by fluorescence microscopy (4G2 antibody). The class given is cell-based, Zika virus. The note with it: ZIKV-infected Vero76, 2 days post infection.
A short description of another data set: in vitro. The conditions noted are these: African green monkey, CC50 Vero76.
The subject of another data set is ZIKV. The experiment in a line: Combination treatment and synergy scoring, CPE-based anti-ZIKV assay. The class given is cell-based. The conditions noted are these: Zika virus; single agent, Fig 6A; read-out: EC50 as a single agent in the dose-response anti-ZIKV assay.
For the next data set, the system named is WNV NY-99. In words: CPE-protection assay, WNV. Type of data set: cell-based, West Nile virus. The note with it: West Nile virus.
The test system of the next data set is ZIKV PRVABC59. In words: microbe, parasite or virus in culture. Type of data set: cell-based. The conditions noted are these: Zika virus; CPE-protection.
Another data set concerns DENV Type 4 H241. In words: microbe, parasite or virus in culture. Type of data set: cell-based. The conditions noted are these: Dengue virus, read-out: EC50 DENV Type 4 H241.
The test system of data set [1] is cleavage between NS4B and NS5. In words: NS4B-NS5 polyprotein processing. Type of data set: cell-based, Zika virus. The note with it: HEK-293T.
The subject of a further data set is Vero76. The note with it: African green monkey.
The target in another data set is NS3-NS4B interaction (Zika virus, UniProt A0A142I5B9). The class given is cell-based.
Data set [2] has as its system ZIKV PLCal. In words: Virus yield (titer) reduction assay in Vero 76 cells. The class given is cell-based, Zika virus. The note with it: 5 µM, Vero 76, 0.05 m.o.i., two days.
The next data set relates to ZIKV-RLuc NS4B V241L. The class given is cell-based, Zika virus.
In another data set the test system is ZIKV-RLuc. The experiment in a line: microbe, parasite or virus in culture. The note with it: wild type ZIKV-RLuc, Vero 76, MOI 0.1, three days, read-out: EC50 ZIKV-RLuc. Type of data set: cell-based, Zika virus.
The test system of a further data set is ZIKV Ib H30656. In words: microbe, parasite or virus in culture. The class given is cell-based. The note with it: Zika virus; CPE-protection.
The subject of a further data set is ZIKV-RLuc NS4B V248G. Type of data set: cell-based, Zika virus.
The subject of the next data set is JEV SA-14. The experiment in a line: CPE-protection assay, JEV. The class given is cell-based, Japanese encephalitis virus. The note with it: Japanese encephalitis virus.
Another data set deals with ZIKV-RLuc NS4B mutants. The class given is cell-based, Zika virus.
Another data set concerns ZIKV MR766. The experiment in a line: microbe, parasite or virus in culture. The note with it: Zika virus; CPE-protection. Type of data set: cell-based.
In a further data set the test system is CHIKV. The experiment in a line: microbe, parasite or virus in culture. The conditions noted are these: Chikungunya virus, Vero 76, read-out: EC50-CPE CHIKV. Type of data set: cell-based.
The test system of data set [3] is ZIKV PLCal. In words: CPE-based anti-ZIKV concentration-response assay (96-well). The note with it: Zika virus, 72 h; Vero 76, MOI 0.05, 3-day incubation, CellTiter-Glo; read-out: EC50-CPE ZIKV-PLCal. The class given is cell-based, Zika virus. (Cellular ATP, detected with luciferase, serves as a proxy for viable cell number.)
A further data set has as its system IFN-α/β induction. In words: Interferon response measurement in ZIKV-infected Huh 7.5.1 cells. The class given is cell-based. The conditions noted are these: Huh 7.5.1, ZIKV MOI 3, 24 h.p.i. On the procedure: Huh 7.5.1. cells were infected with ZIKV with/without test compound treatment, and the supernatants were harvested at 24 h.p.i. and tested for interferon- α/β (IFN- α/β) following the manufacturer’s protocol. HEK-Blue IFN-α/β cells (5000 cells/well) were incubated in 96-well plates with 20 µL of test samples for overnight. The following day, 20 µL of the cell supernatant from the HEK-Blue IFN-α/β cells were further incubated with 180 µL of pre-warmed Quanti-blue SEAP reagent (Invivogen) for 2 hours and the O.D. A620 was measured using a Cytation 1 (Agilent). As a positive and negative control, recombinant human IFN-α2b (InvivoGen, 30 pg/ml) and conditioned media from mock-infected Huh 7.5.1. were used.

For a further data set, the system named is ZIKV DAK-41525-MA. The experiment in a line: CPE-protection assay, ZIKV DAK-41525-MA. Type of data set: cell-based, Zika virus. The note with it: Zika virus.
For data set [4], the system named is ZIKV PLCal. In words: Virus yield (titer) reduction assay in Huh 7.5.1 cells. The class given is cell-based, Zika virus. The note with it: 1 µM.
In a further data set the test system is ZIKV FLR. The experiment in a line: microbe, parasite or virus in culture. The conditions noted are these: Zika virus; CPE-protection. The class given is cell-based.
A further data set has as its system ZIKV-RLuc NS4B A245T. The class given is cell-based, Zika virus.
The next data set concerns the target T2, miniRFP-NS4B (Zika virus, UniProt A0A142I5B9).
T2 construct: 2K-miniRFPnano3-NS4B polypeptide-expressing plasmid (miniRFP-NS4B, hereafter); expressed in transfected cells; host or cells: HEK-293T
In words: Flow cytometric binding assay, miniRFP-NS4B expressing cells. Type of data set: cell-based. The note with it: 293T cells, vs miniRFP alone, miniRFP-NS5 or NS4B-negative cells. On the procedure: HEK-293T cells plated in 12-well plates at 70–80% confluency were transfected with plasmid DNA (1 µg/well) using PEI (Polyethylenimine, 3 µg/well) following a protocol described elsewhere. At 24 hours post transfection, cells were harvested by trypsinization, fixed with 2% PFA, and permeabilized with […]. After blocking for one hour with Intercept Protein-Free blocking buffer (Li-Cor), cells were incubated with MWAC-4163 in PBS with 10% blocking buffer for 30 minutes. After extensive washing, cells were analyzed on an Accuri C6 flow cytometer (BD Sciences) using channel 1 for FAM (ex488 nm/em533) and channel 4 (ex640 nm/em675LP) for miniRFP.
On the technique in general: In flow cytometry, cells or beads pass a laser one at a time.

Like-named read-outs stand apart in the source and are kept apart here.

The term EC50 denotes the concentration that produces a half-maximal response.

With `COc1cc(N[C@H](C(=O)c2c[nH]c3ccc(OC(F)(F)F)cc23)c2ccc(Cl)cc2OC)cc(S(C)(=O)=O)c1` [JNJ-1802], the “19F-NMR spectrum change with DENV NS4B” value on DENV NS4B was “a chemical shift perturbation and significant line broadening was seen”.
With `CC(C)(C)c1ccc(C(=O)NC2CCCC2)cc1` [MWAC-3475], the EC50 in the data set with YFV 17D was greater than 50000 nM; in the data set on ZIKV, 616 nM; in the data set with WNV NY-99, greater than 50000 nM; with ZIKV PRVABC59, 910 ± 200 nM; in the data set with DENV Type 4 H241 it was greater than 50000 nM; with ZIKV-RLuc NS4B V241L, 21400 nM. The EC50 in the data set with ZIKV-RLuc (Zika virus, Vero 76, 72 h) was 390 nM; in the data set with ZIKV-RLuc it was 340 ± 280 nM; in the data set on ZIKV Ib H30656 it was 1010 ± 210 nM; in the data set on ZIKV-RLuc NS4B V248G, 5120 nM; in the data set on JEV SA-14 it was greater than 50000 nM; with ZIKV MR766, 5930 ± 1260 nM. The EC50 is greater than 50000 nM in the data set with CHIKV; 630 ± 650 nM with ZIKV PLCal [3]; 1540 ± 270 nM in the data set on ZIKV DAK-41525-MA; 1130 ± 110 nM in the data set with ZIKV FLR; 2290 nM in the data set with ZIKV-RLuc NS4B A245T. Moreover, in the data set on ZIKV viral E protein, the “intensity and abundance of viral E protein (4G2 antibody)” value is “decreased in a concentration-dependent manner”. For the same compound, the CC50 in the data set “in vitro” came to 28000 nM; in the data set with Vero76, 28100 ± 6500 nM. Moreover, in data set [1], the “effect on cleavage between NS4B and NS5” value is “no such effect was detected”. Also, on NS3-NS4B interaction, the “disruption of NS3-NS4B interaction” value is recorded as “did not inhibit either of these steps”. Moreover, the “reduction in progeny virus titers” value with ZIKV PLCal [2] is greater than 1000 fold. Also, in the data set on ZIKV-RLuc NS4B V241L, the “Fold-increase / fold-change of EC50, NS4B V241L vs wild type” value worked out at 55.24. Moreover, the “Fold-increase / fold-change of EC50, NS4B V248G vs wild type” value with ZIKV-RLuc NS4B V248G stood at 13.20. Besides, the “fold decrease in potency by NS4B mutations” value with ZIKV-RLuc NS4B mutants is given as 6- to 55 fold. For the same compound, in the data set with IFN-α/β induction, the “induction of interferon in the infected cells” value is listed as “did not inhibit either of these steps”. In addition, the “VYR: Virus Yield reduction (Log 10)” value in the data set with ZIKV PLCal [4] is -0.36 ± 0.07 Log 10. For the same compound, in the data set with ZIKV-RLuc NS4B A245T, the “Fold-increase / fold-change of EC50, NS4B A245T vs wild type” value is recorded as 5.91.
As to `COc1ccc([C@@H](C)NC(=O)c2ccc(C(C)(C)C)cc2)cc1` [MWAC-4169, (R)-4-(tert-butyl)-N-(1-(4-methoxyphenyl)ethyl)benzamide], the “binding to cells expressing miniRFP-NS4B (FAM-positive frequency)” value at miniRFP-NS4B is reported as “significantly higher degree of binding”.

The record behind these values is paper PMC13065080, “Discovery of a potent anti-Zika virus benzamide series targeting the viral protein NS4B” (PLOS Pathogens, 2026).
